# Source: PubChem BioAssay (NCI)
#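 Method: 48-hour compound exposure of cells in 96-well plates, five concentrations, linear interpolation of endpoints. GI50 marks 50% less growth. The concentration for full growth arrest is given as TGI.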
# Legend:
# Assay in all cases: DTP human tumour cell line panel, 48 h
# 786-0 renal = system: 786-0 renal
# A498 renal = system: A498 renal
# A549 NSCLC = system: A549 NSCLC
# ACHN renal = system: ACHN renal
# BT-549 breast = system: BT-549 breast
# CAKI-1 renal = system: CAKI-1 renal
# CCRF-CEM leukemia = system: CCRF-CEM leukemia
# COLO 205 colon = system: COLO 205 colon
# DU-145 prostate = system: DU-145 prostate
# EKVX NSCLC = system: EKVX NSCLC
# HCC-2998 colon = system: HCC-2998 colon
# HCT-116 colon = system: HCT-116 colon
# HCT-15 colon = system: HCT-15 colon
# HL-60(TB) leukemia = system: HL-60(TB) leukemia
# HOP-62 NSCLC = system: HOP-62 NSCLC
# HOP-92 NSCLC = system: HOP-92 NSCLC
# HS 578T breast = system: HS 578T breast
# HT29 colon = system: HT29 colon
# IGROV1 ovarian = system: IGROV1 ovarian
# K-562 leukemia = system: K-562 leukemia
# KM12 colon = system: KM12 colon
# LOX IMVI melanoma = system: LOX IMVI melanoma
# M14 melanoma = system: M14 melanoma
# MALME-3M melanoma = system: MALME-3M melanoma
# MCF7 breast = system: MCF7 breast
# MDA-MB-231 breast = system: MDA-MB-231 breast
# MDA-MB-435 = system: MDA-MB-435
# MOLT-4 leukemia = system: MOLT-4 leukemia
# NCI-H226 lung = system: NCI-H226 lung
# NCI-H23 lung = system: NCI-H23 lung
# NCI-H460 lung = system: NCI-H460 lung
# NCI-H522 lung = system: NCI-H522 lung
# NCI/ADR-RES ovarian = system: NCI/ADR-RES ovarian
# OVCAR-3 ovarian = system: OVCAR-3 ovarian
# OVCAR-4 ovarian = system: OVCAR-4 ovarian
# OVCAR-5 ovarian = system: OVCAR-5 ovarian
# OVCAR-8 ovarian = system: OVCAR-8 ovarian
# PC-3 prostate = system: PC-3 prostate
# RPMI-8226 leukemia = system: RPMI-8226 leukemia
# RXF 393 renal = system: RXF 393 renal
# SF-268 CNS = system: SF-268 CNS
# SF-295 CNS = system: SF-295 CNS
# SF-539 CNS = system: SF-539 CNS
# SK-MEL-2 melanoma = system: SK-MEL-2 melanoma
# SK-MEL-28 melanoma = system: SK-MEL-28 melanoma
# SK-MEL-5 melanoma = system: SK-MEL-5 melanoma
# SK-OV-3 ovarian = system: SK-OV-3 ovarian
# SN12C renal = system: SN12C renal
# SNB-19 CNS = system: SNB-19 CNS
# SNB-75 CNS = system: SNB-75 CNS
# SR leukemia = system: SR leukemia
# SW-620 colon = system: SW-620 colon
# T-47D breast = system: T-47D breast
# TK-10 renal = system: TK-10 renal
# U251 CNS = system: U251 CNS
# UACC-257 melanoma = system: UACC-257 melanoma
# UACC-62 melanoma = system: UACC-62 melanoma
# UO-31 renal = system: UO-31 renal
compound,measurement,setting,value
O=C(c1ccc(C(F)(F)F)c(Cl)c1)N(Cc1ccc(Cl)cc1)c1ccc(-c2cc(C(F)(F)F)[nH]n2)c(O)c1,GI50,786-0 renal,895 nM
same,TGI,786-0 renal,1700 nM
same,GI50,A498 renal,1040 nM
same,TGI,A498 renal,2660 nM
same,GI50,A549 NSCLC,1350 nM
same,TGI,A549 NSCLC,5110 nM
same,GI50,ACHN renal,1240 nM
same,TGI,ACHN renal,4050 nM
same,GI50,BT-549 breast,1310 nM
same,TGI,BT-549 breast,3990 nM
same,GI50,CAKI-1 renal,1010 nM
same,TGI,CAKI-1 renal,3040 nM
same,GI50,CCRF-CEM leukemia,1110 nM
same,TGI,CCRF-CEM leukemia,5330 nM
same,GI50,COLO 205 colon,865 nM
same,TGI,COLO 205 colon,1640 nM
same,GI50,DU-145 prostate,1430 nM
same,TGI,DU-145 prostate,5340 nM
same,GI50,EKVX NSCLC,1300 nM
same,TGI,EKVX NSCLC,4570 nM
same,GI50,HCC-2998 colon,1430 nM
same,TGI,HCC-2998 colon,4630 nM
same,GI50,HCT-116 colon,705 nM
same,TGI,HCT-116 colon,1580 nM
same,GI50,HCT-15 colon,777 nM
same,TGI,HCT-15 colon,1970 nM
same,GI50,HL-60(TB) leukemia,1120 nM
same,TGI,HL-60(TB) leukemia,2690 nM
same,GI50,HOP-62 NSCLC,1020 nM
same,TGI,HOP-62 NSCLC,2330 nM
same,GI50,HOP-92 NSCLC,629 nM
same,TGI,HOP-92 NSCLC,2140 nM
same,GI50,HS 578T breast,1050 nM
same,TGI,HS 578T breast,3030 nM
same,GI50,HT29 colon,1250 nM
same,TGI,HT29 colon,5550 nM
same,GI50,IGROV1 ovarian,887 nM
same,TGI,IGROV1 ovarian,2130 nM
same,GI50,K-562 leukemia,1050 nM
same,TGI,K-562 leukemia,5160 nM
same,GI50,KM12 colon,951 nM
same,TGI,KM12 colon,2190 nM
same,GI50,LOX IMVI melanoma,819 nM
same,TGI,LOX IMVI melanoma,1500 nM
same,GI50,M14 melanoma,1010 nM
same,TGI,M14 melanoma,2430 nM
same,GI50,MALME-3M melanoma,941 nM
same,TGI,MALME-3M melanoma,2360 nM
same,GI50,MCF7 breast,1120 nM
same,TGI,MCF7 breast,3850 nM
same,GI50,MDA-MB-231 breast,964 nM
same,TGI,MDA-MB-231 breast,2210 nM
same,GI50,MDA-MB-435,1250 nM
same,TGI,MDA-MB-435,3660 nM
same,GI50,MOLT-4 leukemia,1320 nM
same,TGI,MOLT-4 leukemia,5090 nM
same,GI50,NCI-H226 lung,1080 nM
same,TGI,NCI-H226 lung,2940 nM
same,GI50,NCI-H23 lung,910 nM
same,TGI,NCI-H23 lung,2450 nM
same,GI50,NCI-H460 lung,1160 nM
same,TGI,NCI-H460 lung,3120 nM
same,GI50,NCI-H522 lung,893 nM
same,TGI,NCI-H522 lung,3310 nM
same,GI50,NCI/ADR-RES ovarian,1110 nM
same,TGI,NCI/ADR-RES ovarian,2990 nM
same,GI50,OVCAR-3 ovarian,845 nM
same,TGI,OVCAR-3 ovarian,2190 nM
same,GI50,OVCAR-4 ovarian,1080 nM
same,TGI,OVCAR-4 ovarian,4870 nM
same,GI50,OVCAR-5 ovarian,1070 nM
same,TGI,OVCAR-5 ovarian,4260 nM
same,GI50,OVCAR-8 ovarian,1200 nM
same,TGI,OVCAR-8 ovarian,3910 nM
same,GI50,PC-3 prostate,897 nM
same,TGI,PC-3 prostate,2910 nM
same,GI50,RPMI-8226 leukemia,659 nM
same,TGI,RPMI-8226 leukemia,2230 nM
same,GI50,RXF 393 renal,923 nM
same,TGI,RXF 393 renal,2040 nM
same,GI50,SF-268 CNS,1320 nM
same,TGI,SF-268 CNS,5190 nM
same,GI50,SF-295 CNS,1080 nM
same,TGI,SF-295 CNS,2870 nM
same,GI50,SF-539 CNS,994 nM
same,TGI,SF-539 CNS,2090 nM
same,GI50,SK-MEL-2 melanoma,1160 nM
same,TGI,SK-MEL-2 melanoma,3130 nM
same,GI50,SK-MEL-28 melanoma,1430 nM
same,TGI,SK-MEL-28 melanoma,5160 nM
same,GI50,SK-MEL-5 melanoma,816 nM
same,TGI,SK-MEL-5 melanoma,1550 nM
same,GI50,SK-OV-3 ovarian,1370 nM
same,TGI,SK-OV-3 ovarian,4890 nM
same,GI50,SN12C renal,886 nM
same,TGI,SN12C renal,2040 nM
same,GI50,SNB-19 CNS,1610 nM
same,TGI,SNB-19 CNS,6350 nM
same,GI50,SNB-75 CNS,989 nM
same,TGI,SNB-75 CNS,3240 nM
same,GI50,SR leukemia,983 nM
same,TGI,SR leukemia,2870 nM
same,GI50,SW-620 colon,958 nM
same,TGI,SW-620 colon,2400 nM
same,GI50,T-47D breast,948 nM
same,TGI,T-47D breast,3430 nM
same,GI50,TK-10 renal,1410 nM
same,TGI,TK-10 renal,3990 nM
same,GI50,U251 CNS,882 nM
same,TGI,U251 CNS,2250 nM
same,GI50,UACC-257 melanoma,1040 nM
same,TGI,UACC-257 melanoma,3570 nM
same,GI50,UACC-62 melanoma,800 nM
same,TGI,UACC-62 melanoma,1970 nM
same,GI50,UO-31 renal,717 nM
same,TGI,UO-31 renal,1650 nM
